{"source": "patent US9119409B2", "about": "“Water soluble nutritional supplement for ruminants” (priority 2013, dated 2015)", "origin": "cited, not measured here", "note": "Like-named read-outs stand apart in the source and are kept apart here.", "data": [{"smiles": "O=C([O-])[O-].[Ca+2]", "note": "[calcium carbonate]", "values": [{"measurement": "bioavailability", "setting": "at a pH greater than 4", "value": "less than 1%"}, {"measurement": "bioavailability", "setting": "at a pH of 1.5", "value": "around 75%"}]}]}
